Experimental data reported in US6780871B2, “Methods and compositions for treating addiction disorders” (Albany Medical College, priority 2001, dated 2004).

Tests used:
[1] = tested on: morphine self-administration; experiment: intravenous morphine self-administration; assay type: in vivo, rat; conditions: 18-methoxycoronaridine 1 mg/kg i.p., dextromethorphan 5 mg/kg s.c.
Protocol: Dextromethorphan hydrobromide (5 mg/kg; Sigma/RBI, St. Louis, Mo.) was dissolved in saline and injected subcutaneously 20 minutes before testing. Mecamylamine hydrochloride (1 mg/kg; Sigma/RBI, St. Louis, Mo.) was dissolved in physiological saline and injected intraperitoneally 30 minutes before testing. All rats received two injections. For rats that received a single drug, half of them also received the appropriate saline/vehicle injection corresponding to each of the other two drugs.
Naive female Long-Evans derived rats (250 g; Charles River, N.Y.) were maintained on a normal 12 h light cycle (lights on at 7:00 a.m., lights off at 7:00 p.m.). For all experiments the “Principles of Laboratory Animal Care” (NIH publication No. 85-23, revised 1985, which is hereby incorporated by reference) were followed.
The intravenous self-administration procedure described in Glick et al., “18-MC Reduces Methamphetamine and Nicotine Self-administration in Rats,” NeuroReport 11:2013-2015 (2000) (“Glick I”), which is hereby incorporated by reference, was employed. Briefly, responses on either of two levers (mounted 15 cm apart on the front wall of each operant test cage) were recorded on an IBM compatible computer with a Med Associates, Inc. interface. The intravenous self-administration system consisted of polyethylene-silicone cannulas constructed according to the design of Weeks, “Long-term Intravenous Infusion,” pp. 155-168 in Myers (ed.), Methods in Psychobiology, Vol. 2, New York: Academic Press (1972) (“Weeks”), which is hereby incorporated by reference; Instech harnesses and swivels; and Harvard Apparatus infusion pumps (#55-2222). Shaping of the bar-press response was initially accomplished by training rats to bar-press for water. Cannulas were then implanted in the external jugular vein according to procedures described in Weeks, which is hereby incorporated by reference. Self-administration testing began with a 16-h nocturnal session followed by daily 1-h sessions, 5 days (Monday-Friday) a week. A lever-press response produced a 10 μl infusion of drug solution (0.01 mg of morphine sulfate) in about 0.2 s or a 50 μl infusion of drug solution (0.025 mg of methamphetamine sulfate) in about 1 s. Since all rats generally weighed 250±20 g, each response delivered approximately 0.04 mg/kg of morphine or 0.1 mg/kg of methamphetamine. Experiments to assess the effects of experimental treatments were begun when baseline self-administration rates stabilized (≦10% variation from one day to the next across 5 days), usually after 2 weeks of testing.
Each data point represents the mean (±S.E.M.) percent of baseline of 6-8 rats. Significant differences between baseline and treatment are indicated by an asterisk (paired t-test, P<0.01-0.001).
Each data point represents the mean (±S.E.M.) percent of baseline of 5-8 rats. Significant differences between baseline and treatment are indicated by an asterisk (paired t-test), P<0.05-0.01).

α3β4 nACh receptors = molecular target: T1, α3β4 nACh receptors (Rattus norvegicus, UniProt P09483+P12390); experiment: whole-cell patch-clamp of transfected HEK293 cells, neuronal nACh receptors, 300 μM ACh; assay type: cell-based
T1 construct: expressed in transfected cells; host or cells: HEK293 (ATCC CRL1573), transient transfection
T1 sequence (P09483 31-630): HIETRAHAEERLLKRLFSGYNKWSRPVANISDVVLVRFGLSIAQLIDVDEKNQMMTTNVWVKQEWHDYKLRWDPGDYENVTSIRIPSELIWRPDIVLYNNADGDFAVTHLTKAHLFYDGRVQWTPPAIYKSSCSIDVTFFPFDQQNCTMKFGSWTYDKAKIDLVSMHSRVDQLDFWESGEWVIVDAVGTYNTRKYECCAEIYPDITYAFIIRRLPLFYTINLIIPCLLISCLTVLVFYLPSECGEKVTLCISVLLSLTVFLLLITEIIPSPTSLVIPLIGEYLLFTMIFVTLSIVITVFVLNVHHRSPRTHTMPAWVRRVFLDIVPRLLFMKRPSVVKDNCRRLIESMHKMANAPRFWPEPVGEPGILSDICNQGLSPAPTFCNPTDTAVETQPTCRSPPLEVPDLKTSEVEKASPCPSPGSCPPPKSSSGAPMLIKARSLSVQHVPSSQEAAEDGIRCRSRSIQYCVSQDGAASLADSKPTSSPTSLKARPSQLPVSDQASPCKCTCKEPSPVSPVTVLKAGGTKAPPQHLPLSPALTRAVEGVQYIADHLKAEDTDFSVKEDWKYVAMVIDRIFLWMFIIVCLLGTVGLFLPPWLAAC
T1 sequence (P12390 25-500): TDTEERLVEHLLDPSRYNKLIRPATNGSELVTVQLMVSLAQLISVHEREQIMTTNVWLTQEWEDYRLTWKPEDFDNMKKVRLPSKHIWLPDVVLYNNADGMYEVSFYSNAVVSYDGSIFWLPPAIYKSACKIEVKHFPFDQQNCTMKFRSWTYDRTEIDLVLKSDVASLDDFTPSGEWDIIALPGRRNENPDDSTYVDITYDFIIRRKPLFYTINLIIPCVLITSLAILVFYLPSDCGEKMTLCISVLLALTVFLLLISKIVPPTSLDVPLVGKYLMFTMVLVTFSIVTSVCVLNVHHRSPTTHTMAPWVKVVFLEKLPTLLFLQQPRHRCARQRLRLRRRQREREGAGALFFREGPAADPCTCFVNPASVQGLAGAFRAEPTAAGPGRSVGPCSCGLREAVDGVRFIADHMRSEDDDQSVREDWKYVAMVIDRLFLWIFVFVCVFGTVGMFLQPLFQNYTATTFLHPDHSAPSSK
Protocol: Human embryonic kidney 293 (HEK293) fibroblasts (ATCC CRL1573) were cultured in minimal essential medium supplemented with 10% fetal bovine serum and 2 mM glutamine (Life Technologies, Rockville, Md.). Cells were plated on poly-D-lysine-coated 35 mm nunc dishes, transfected by the LipofectaminePLUS method (Life Technologies), and examined functionally between 18-48 h post transfection. The following receptor subunit cDNAs were used: nAChR-α3 (nicotinic acetylcholine receptor-α3; accession no. L31621), nAChR-α4 (accession no. L31620), nAChR-β2 (accession no. L31622), nAChR-β4 (accession no. U42976), 5-HT3R-A (5-HT3A receptor; accession no. M74425), NR1 (N-methyl-D-aspartate receptor 1; accession no. X63255), NR2A (accession no. X91561), and NR2B (accession no. M91562). The nAchR and NR clones were rat; the 5-HT3R-A clone was mouse. Co-transfection of enhanced green fluorescent protein (“EGFP”) (10% of total cDNA) provided a marker to identify transfected cells. Transfected cells were selected for EGFP expression and examined by voltage-clamp recording in the whole-cell configuration using an Axopatch 200B patch-clamp amplifier (Axon Instruments, Foster City, Calif.). Thin-walled borosilicate glass microelectrodes (TW150F, World Precision Instruments, Sarasota, Fla.) had resistances of 3-5 MΩ when filled with an internal solution containing (in mM): 135 CsCl, 10 CsF, 10 HEPES (N-[2-hydroxyethyl]piperazine-N′-[2-ethanesulfonic acid]), 5 EGTA (ethylene glycol-bis[β-aminoethyl ether]-N,N,N′,N′-tetraacetic acid), 1 MgCl2, 0.5 CaCl2, pH 7.2. Whole-cell capacitance and series resistance were recorded and adequately compensated using the available circuitry of the amplifier. Current responses were filtered at 1 kHz with an 8-pole Bessel filter (Cygnus Technologies, Delaware Water Gap, Pa.), digitized at 3 kHz, and stored on a Macintosh PowerPC-G3 computer using an ITC-16 interface (Instrutech, Great Neck, N.Y.) under control of the data acquisition and analysis program Synapse (Synergy Research, Gaithersburg, Md.). Cells were continuously superfused with extracellular solution containing (in mM): 150 NaCl, 3 KCl, 5 HEPES, 1 MgCl2, 1.8 CaCl2, 10 glucose, and 0.1 mg/ml phenol red, pH 7.3 (MgCl2 was omitted from all solutions used for the study of NMDA receptors). […] Control, agonist, and drug solutions were applied to individual cells by rapid perfusion. Solutions were driven by a syringe pump through a flowpipe having 4 inputs that converge at a single common output of approximately 100 μm diameter. Rapid switching between inputs was achieved using a set of upstream solenoid valves (Lee Co., Westbrook, Conn.) under computer control; the solution exchange rate was ˜5 ms as measured from liquid junction currents.
Transfected HEK293 cells expressing various receptor subunit cDNAs were examined by whole-cell patch-clamp recording with fast perfusion of agonist and drug solutions. […] Transfected HEK293 cells expressing α3β4 nACh receptors were voltage-clamped to −70 mV and stimulated with 1 mM ACh at 30 s intervals. […] In FIG. 1A, open bars depict the timing of ACh application; filled bars depict the timing of co-application of 20 μM IBO or 20 μM 18MC; and inhibition was measured relative to control at the end of the drug application (indicated by arrows). […] The data presented in FIG. 1B are mean±SEM for 3-14 cells per point, and curve fits are given for the logistic equation: I=Imax/(1+([drug]/IC50)). […] In this case, transfected HEK293 cells expressing α3β4 nACh receptors were voltage-clamped to −70 mV and stimulated with 300 μM ACh at 30 s intervals.

SMILES: COCC[C@H]1CC2CN3CCc4c([nH]c5ccccc45)[C@](C(=O)OC)(C2)[C@H]13 [18-methoxycoronaridine]
- effect on morphine self-administration (percent of baseline) ([1]; Example 5, FIG. 5: mecamylamine 1 mg/kg i.p., 6-8 rats): none of the drugs administered alone, significantly decreased
- effect on morphine self-administration (percent of baseline) ([1]; Example 6, FIG. 8: mecamylamine 1 mg/kg i.p., bupropion 5 mg/kg i.p., 5-8 rats): none of the drugs administered alone, significantly decreased
- inhibition of ACh-evoked response (α3β4 nACh receptors; 5 μM drug with 300 μM ACh): no apparent inhibition
- response to drug applied alone (agonist activity) (α3β4 nACh receptors; 20 μM drug alone, -70 mV): did not produce any response
- inhibition of ACh-evoked response (α3β4 nACh receptors; 20 μM drug with 300 μM ACh, FIG. 2): 8 ±4%
